Patent publication US20230044649A1, “METHODS TO ENHANCE BIOAVAVAILABILITY OF ORGANIC SMALL MOLECULES AND DEPOSITED FILMS MADE THEREFROM” (THE REGENTS OF THE UNIVERSITY OF MICHIGAN, priority 2015, published 2023)
≈ marks a conversion by molar mass, not a printed value. Blank lines part the entries; values can stand above or below the molecule they belong to.

Legend:
[1] = Solubility at pH 7.4; format: physicochemical
[2] = system: ovarian carcinoma cell line, OVCAR3; experiment: Cancer cell growth inhibition by drug film, powder or DMSO solution; format: cell-based; conditions: for OVCAR3 cancer cells viability: after 48 hours, nominal 5 μM
Method: The printed films of BAY 11-7082 are tested by applying OVCAR3 cells solution directly onto the film, as compared to the BAY 11-7082 drug in powder form dissolved in DMSO.
See FIG. 11 showing drug application in a film form.

[3] = physchem; conditions: 20 °C
Method: First, solubilities of the different compounds in corresponding solvents are measured at temperature 20±1° C.

[4] = Initial dissolution rate of printed film versus loose powder (USP 2 stirring apparatus, UV-VIS); format: physicochemical
Source text: When comparing dissolution from powder form and film form for the same material and same crystal structure, D, V, Cs are constant and initial dissolution rate will be proportional to A/δ. δ and A are constant for dissolution from film since area of the film is not changing during dissolution. In a powder, δ and A are changing since particles size and shape is changing. […] Therefore only the initial rate can be compared between powder and a film.
In order to compare film form versus original powder dissolution behavior, loose powders with same weight as films are introduced into 10 ml solution without any prior treatment and stirred using stirring rod with same shape and diameter as one that is used for films. All experiments are performed at temperature […].
(§1) For dissolution rate experiments a USP 2 stirring apparatus with stirring speed of 100 rpm is used. Concentration is monitored using UV-VIS spectrometer equipped with dipping probe. As an example glass slides substrates with deposited 9 mm diameter drug films are used. Films weights are in the range of 5-80 μg. First, intrinsic dissolution rate (IDR) of films is studied and compared it to dissolution of compressed powder in form of 1.57 mm diameter pellets. IDR is defined as Equation (4): […]

[5] = Intrinsic dissolution rate (IDR) of films compared with compressed powder pellets; format: physicochemical; conditions: comparable to compressed pellets, about 10 ml, 20±1° C., solvent per compound as
Method: as §1
In this case (dm/dt)max is maximum slope in a dissolution curve evaluated at the start of dissolution process (m—dissolved solute mass). Glass substrates with deposited films are attached to a stirring rod having same diameter as compressed pellets rod (20 mm), assuring that hydrodynamic boundary layer thickness is same for compressed powder and deposited film. Solution volume remains constant in all experiments, about 10 ml, and temperature is 20±1° C.

[6] = Surface area of printed film and of powder; format: physicochemical
[7] = system: breast carcinoma cell line, MCF7; experiment: Cancer cell growth inhibition by drug film, powder or DMSO solution; format: cell-based; conditions: after 48 hours, nominal 5 μM
[8] = powder form dissolved in growth medium

- solubility [1]: 0.02925 ± 5e-05 mg/mL (≈ 141 µM)
SMILES: Cc1ccc(S(=O)(=O)/C=C/C#N)cc1 [BAY 11-7082, (E)-3-(4-Methylphenylsulfonyl)-2-propenenitrile]
- efficacy / viability with film form drug compared with drug dissolved in DMSO ([2]; OVCAR3 cells applied directly onto the film): No significant difference in efficacy

- solubility ([3]; water): 0.01 ± 0.0005 mg/mL (≈ 30.1 µM)
SMILES: O=C1OC2(c3ccc(O)cc3Oc3cc(O)ccc32)c2ccccc21 [fluorescein]

- enhancement of initial dissolution rate in film versus loose powder ([4]; aqueous HCl buffer pH 1.2, FIG. 10(b), 19±1° C.): about 30 times
- initial dissolution rate, printed film relative to powder ([4]; ibuprofen in buffer HCl 1.3): about 10 times higher
- initial dissolution rate ([4]; ibuprofen in buffer HCl 1.3, 30 μg of powder): 0.0004 µg/mL/s
- initial dissolution rate ([4]; ibuprofen in buffer HCl 1.3, printed film): 0.04 µg/mL/s
- solubility ([3]; pH 1.2, simulated gastric fluid): 0.0225 ± 0.0005 mg/mL (≈ 109 µM)
- intrinsic dissolution rate (IDR) [5]: 1×10^−3±3×10^−4 μg sec^−1 mm^−2
- film surface area relative to powder surface area [6]: about 5 times higher
SMILES: CC(C)Cc1ccc(C(C)C(=O)O)cc1 (stereo not drawn) [ibuprofen]

- intrinsic dissolution rate (IDR) [5]: 6×10^−4±1×10^−4 μg sec^−1 mm^−2
SMILES: CC/C(=C(\c1ccccc1)c1ccc(OCCN(C)C)cc1)c1ccccc1 [tamoxifen]
- MCF7 cancer cells viability ([7]; film form): 58%
- MCF7 cancer cells viability [7, 8]: 79%
- OVCAR3 cancer cells viability ([2]; film form): 44%
- OVCAR3 cancer cells viability [2, 8]: 68%
